Where “and” joins values, the source holds several entries; their conditions need not be identical. Equal entries are not always repeated. Where two headings read alike, the source gives them in different places.
Experiments:
FGFR2 in SNU-16 = test: FGFR2 phosphorylation by immunoblotting, SNU-16; format: cell-based; conditions: 0.3 μM to 10 μM for 2 h, then KGF stimulation for 15 min
Procedure: (§1) Cells whose growth rely on FGFR2 as determined in Example 585 such as KATO III and SNU-16, were treated with increasing concentration of example 159, from 0.3 μM to 10 μM for 2 h, followed by stimulation with […] of KGF for 15 min.

LS174T = test: combination cytotoxicity, LS174T; format: cell-based; conditions: in combination with (3R,4R)-3-(5,6-dihydro-4H-pyrrolo[3,2,1-ij]quinolin-1-yl)-4-(1H-indol-3-yl)pyrrolidine-2,5-dione
Source text: (§2) The combination data of (R)-6-(2-fluorophenyl)-N-(3-(2-(4-(2-methoxyethyl)piperazin-1-yl)ethyl)phenyl)-5,6-dihydrobenzo[h]quinazolin-2-amine with a kinase inhibitor (3R,4R)-3-(5,6-dihydro-4H-pyrrolo[3,2,1-ij]quinolin-1-yl)-4-(1H-indol-3-yl)pyrrolidine-2,5-dione is shown in Table 28. The identity and tissue origin of cancer cell lines are indicated.

RT4 = test: combination cytotoxicity, RT4; format: cell-based; conditions: in combination with (3R,4R)-3-(5,6-dihydro-4H-pyrrolo[3,2,1-ij]quinolin-1-yl)-4-(1H-indol-3-yl)pyrrolidine-2,5-dione
Source text: as §2

RT112 = test: combination cytotoxicity, RT112; format: cell-based; conditions: in combination with (3R,4R)-3-(5,6-dihydro-4H-pyrrolo[3,2,1-ij]quinolin-1-yl)-4-(1H-indol-3-yl)pyrrolidine-2,5-dione
Source text: as §2

THP-1 = test: combination cytotoxicity, THP-1; format: cell-based; conditions: in combination with (3R,4R)-3-(5,6-dihydro-4H-pyrrolo[3,2,1-ij]quinolin-1-yl)-4-(1H-indol-3-yl)pyrrolidine-2,5-dione
Source text: as §2

A549 = test: combination cytotoxicity, A549; format: cell-based; conditions: in combination with (3R,4R)-3-(5,6-dihydro-4H-pyrrolo[3,2,1-ij]quinolin-1-yl)-4-(1H-indol-3-yl)pyrrolidine-2,5-dione
Source text: as §2

FGFR2 in KATO III = test: FGFR2 phosphorylation by immunoblotting, KATO III; format: cell-based; conditions: 0.3 μM to 10 μM for 2 h, then KGF stimulation for 15 min
Procedure: as §1

DU4475 = test: combination cytotoxicity, DU4475; format: cell-based; conditions: in combination with (3R,4R)-3-(5,6-dihydro-4H-pyrrolo[3,2,1-ij]quinolin-1-yl)-4-(1H-indol-3-yl)pyrrolidine-2,5-dione
Source text: as §2

CAKI-2 = test: combination cytotoxicity, CAKI-2; format: cell-based; conditions: in combination with (3R,4R)-3-(5,6-dihydro-4H-pyrrolo[3,2,1-ij]quinolin-1-yl)-4-(1H-indol-3-yl)pyrrolidine-2,5-dione
Source text: as §2

SNU-16 [1] = test: combination cytotoxicity, SNU-16; format: cell-based; conditions: in combination with (3R,4R)-3-(5,6-dihydro-4H-pyrrolo[3,2,1-ij]quinolin-1-yl)-4-(1H-indol-3-yl)pyrrolidine-2,5-dione
Source text: as §2

Kato III cells = test: cell cycle profile by FACS analyses; format: cell-based
Procedure: Kato III cells were treated with example 159, or FGFR2 siRNA. Cell cycle profiles were assessed by FACS analyses (FIG. 3).

CALU-6 = test: combination cytotoxicity, CALU-6; format: cell-based; conditions: in combination with (3R,4R)-3-(5,6-dihydro-4H-pyrrolo[3,2,1-ij]quinolin-1-yl)-4-(1H-indol-3-yl)pyrrolidine-2,5-dione
Source text: as §2

[2] = test system: SNU-16, Ba/F3-FGFR2 or Ba/F3 INSR tumors; test: tumor growth in xenograft models; format: in vivo; conditions: subcutaneous tumors in nude mice; orally dosed once daily
Procedure: (A) Tumor from cancer cells SNU-16, Ba/F3-FGFR2 or Ba/F3 INSR were established subcutaneously in nude mice. Tumor growth in nude mice orally dosed with the indicated dose of example 159, or vehicle control was determined. All regimens were administered once daily for the indicated number of days. Tumor sizes were evaluated periodically during treatment and are represented as the mean of tumor volume in mm3±SEM (n=10) (FIGS. 4A-C). Phosphorylation of FGFR2 (D) or ERK (E) was assessed for cells from tumors harvested at the indicated time points after a single oral administration of 250 mg/kg of Example 159 by immunohistochemistry.

FGFR2 kinase = target: T1, FGFR2 kinase (Homo sapiens, UniProt P21802, N549H); test: fluorescent ELISA FGFR2 kinase assay (biochemical)
T1 construct: purchased Millipore 14-742
Summary of the method: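 Heterogeneous fluorescent ELISA with biotinylated tyrosine-motif peptide substrate; 60-min kinase reaction, then 30-min streptavidin capture at room temperature, during which phosphorylation continues. Stopped by TBST washes; phosphotyrosine detected with anti-phospho-tyrosine antibody plus secondary antibody.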

KATO III [3] = test: in vitro PD assay, KATO III; format: cell-based; conditions: Homo sapiens
Ba/F3 parental cells = test: MTS assay, Ba/F3 parental; conditions: Mus musculus, BaF3, read-out: MTS IC50
Procedure: (§3) Cells were maintained at 37° C., 5% CO2 in DMEM media supplemented with 1% fetal bovine serum, penicillin/streptomycin and fungizone (Invitrogen). Cells were seeded into 96-well tissue culture plates at 3000 per well and cultured at 37° C. for 18 hours. Test compounds were dissolved and diluted to 300× in DMSO then diluted 1:40 in DMEM.

KATO III [4] = test: MTS assay, KATO III; format: cell-based; conditions: Homo sapiens, read-out: MTS IC50
Procedure: as §3

SNU-16 [5] = test: in vitro PD assay, SNU-16; format: cell-based; conditions: Homo sapiens
SNU-16 [6] = test: MTS assay, SNU-16; format: cell-based; conditions: Homo sapiens, SNU-16, SNU-16; read-out: MTS IC50
Procedure: as §3

T1 sequence (P21802 456-770 N549H limits assumed): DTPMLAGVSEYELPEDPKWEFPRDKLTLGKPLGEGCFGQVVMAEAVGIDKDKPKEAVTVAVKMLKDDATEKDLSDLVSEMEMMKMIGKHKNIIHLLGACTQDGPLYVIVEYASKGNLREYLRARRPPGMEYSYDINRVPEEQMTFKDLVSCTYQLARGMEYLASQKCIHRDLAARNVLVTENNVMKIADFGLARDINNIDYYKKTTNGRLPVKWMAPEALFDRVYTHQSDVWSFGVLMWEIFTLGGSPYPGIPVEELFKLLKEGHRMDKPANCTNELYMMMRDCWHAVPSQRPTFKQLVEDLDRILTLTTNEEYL

SMILES	amount of phosphorylated FGFR2 (FGFR2 in SNU-16)	combination cytotoxicity (LS174T)	combination cytotoxicity (RT4)	combination cytotoxicity (RT112)	combination cytotoxicity (THP-1)	combination cytotoxicity (A549)	amount of phosphorylated FGFR2 (FGFR2 in KATO III)	combination cytotoxicity (DU4475)	combination cytotoxicity (CAKI-2)	combination cytotoxicity (SNU-16 [1])	cell cycle profile (Kato III cells)	combination cytotoxicity (CALU-6)	tumor growth in xenograft models [2]	IC50 (FGFR2 kinase; FGFR2 (N549H), read-out: Biochemical data (IC50-μM) FGFR2 (N549H))	IC50 (FGFR2 kinase; read-out: Biochemical IC50) [µM]	IC50 (KATO III [3]) [nM]	IC50 (Ba/F3 parental cells) [nM]	IC50 (KATO III [4]) [nM]	IC50 (SNU-16 [5]) [nM]	IC50 (SNU-16 [6]) [nM]
COCCN1CCN(CCc2cccc(Nc3ncc4c(n3)-c3ccccc3[C@H](c3ccccc3F)C4)c2)CC1 [(R)-6-(2-fluorophenyl)-N-(3-(2-(4-(2-methoxyethyl)piperazin-] [(R)-6-(2-fluorophenyl)-N-(3-(2-(4-(2-methoxyethyl)piperazin-1-yl)ethyl)phenyl)-5,6-dihydrobenzo[h]quinazolin-2-amine]	inhibition of autophosphorylation of FGFR2	additive cytotoxicity	additive cytotoxicity	additive cytotoxicity	additive cytotoxicity	additive cytotoxicity	inhibition of autophosphorylation of FGFR2	additive cytotoxicity	additive cytotoxicity	additive cytotoxicity	arrest of KATO III cells in G1 phase	additive cytotoxicity	inhibition of tumor growth							
COCCN1CCN(CCc2cccc(Nc3ncc4c(n3)-c3ccccc3[C@H](c3ccccc3F)C4)c2)CC1 [Example 159, (R)-6-(2-fluorophenyl)-N-(3-(2-(4-(2-methoxyethyl)piperazin-1-yl)ethyl)phenyl)-5,6-dihydrobenzo[h]quinazolin-2-amine]														0.00714 µM and 0.0523 µM	0.0004	100	70000	100	200	1000

Source: patent publication US8357694B2, “Substituted 5,6-dihydro-6-phenylbenzo[F]isoquinolin-2-amine compounds” (ArQule, Inc., priority 2008, dated 2013)
